Source: patent publication US7429596B2, “1H-pyrrolo [2,3-D] pyrimidine derivatives and methods of use thereof” (The Regents of the University of California, priority 2003, dated 2008)
Numbering of substitutions follows the chain as printed. Where “and” joins values, the source holds several entries; their conditions need not be identical. Equal entries are not always repeated. Entries after “also recorded” stand apart in the source; their conditions may differ. Where two headings read alike, the source gives them in different places.

Tests used:
c-Fyn-wt = c-Fyn-wt (Homo sapiens, UniProt P06241); assay: Inhibition of Src family kinase Fyn; format: biochemical
c-Fyn-wt, sequence (P06241 whole entry): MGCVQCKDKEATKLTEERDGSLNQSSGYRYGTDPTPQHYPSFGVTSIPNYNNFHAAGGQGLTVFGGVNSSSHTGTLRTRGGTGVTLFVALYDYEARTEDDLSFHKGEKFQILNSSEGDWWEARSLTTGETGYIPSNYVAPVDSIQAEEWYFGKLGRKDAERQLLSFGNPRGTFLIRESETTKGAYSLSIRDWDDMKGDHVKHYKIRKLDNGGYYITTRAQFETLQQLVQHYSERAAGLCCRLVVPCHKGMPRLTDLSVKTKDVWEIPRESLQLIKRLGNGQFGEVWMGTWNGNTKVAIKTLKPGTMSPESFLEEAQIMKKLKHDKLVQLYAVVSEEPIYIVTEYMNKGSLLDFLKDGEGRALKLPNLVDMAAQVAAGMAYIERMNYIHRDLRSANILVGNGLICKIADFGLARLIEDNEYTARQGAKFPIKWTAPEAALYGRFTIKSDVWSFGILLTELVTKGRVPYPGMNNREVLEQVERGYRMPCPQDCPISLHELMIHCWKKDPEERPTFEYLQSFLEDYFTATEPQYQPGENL
Protocol: Experiments were performed to determine whether AB129 was capable of inhibiting the Src family kinase, Fyn. […] Such a compound would serve as a test compound for determining the importance of dual inhibition of CBR1 and protein kinases.

[1] = molecular target: T1, carbonyl reductase 1 (CBR1) (Homo sapiens, UniProt P16152); assay: CBR1 inhibition: menadione reduction, NADPH absorbance at 340 nm; format: biochemical; design: 6-His (N); made in house; host or cells: E. coli
T1 sequence (P16152 1-277): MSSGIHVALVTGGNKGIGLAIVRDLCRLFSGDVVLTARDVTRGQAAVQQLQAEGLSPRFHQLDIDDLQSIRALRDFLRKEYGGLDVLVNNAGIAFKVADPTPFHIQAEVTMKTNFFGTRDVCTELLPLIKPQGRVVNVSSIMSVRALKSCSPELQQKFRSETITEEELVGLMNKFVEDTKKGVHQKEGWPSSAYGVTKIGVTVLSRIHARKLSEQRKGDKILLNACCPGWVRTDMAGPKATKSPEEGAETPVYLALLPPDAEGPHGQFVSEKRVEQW
Protocol: CBR was expressed in E. coli and purified using glutathione beads; CBR has a naturally occurring. glutathione binding site. An N-terminal 6-His tagged protein was prepared to allow purification by metal affinity. Our CBR assay employs the synthetic substrate Menadione (2-methyl-1,4-naphthoquinone). Reaction progress is monitored by the decrease in NADPH-absorbance at 340 nm. Saturating concentrations of Menadione with variable concentrations of NADPH are employed in order to ascertain KI values.

adenocarcinoma cells = assay: Killing of adenocarcinoma cells in culture; format: cell-based
Excerpt: In order to verify this assumption, the pyrazolopyrimidine RB2 and the analogous pyrrolopyrimidine RB5 were synthesized (FIG. 37). These compounds employ an R^2 isopropyl as opposed to the AB129 t-butyl because the Mitsunobu reaction used for RB5 synthesis is not amenable to t-butyl alkylation.

11β-HSD1 = 11β-HSD1 (Homo sapiens, UniProt P28845); conditions: Diederich et al. 2000; cited from earlier work
11β-HSD1, sequence (P28845 whole entry): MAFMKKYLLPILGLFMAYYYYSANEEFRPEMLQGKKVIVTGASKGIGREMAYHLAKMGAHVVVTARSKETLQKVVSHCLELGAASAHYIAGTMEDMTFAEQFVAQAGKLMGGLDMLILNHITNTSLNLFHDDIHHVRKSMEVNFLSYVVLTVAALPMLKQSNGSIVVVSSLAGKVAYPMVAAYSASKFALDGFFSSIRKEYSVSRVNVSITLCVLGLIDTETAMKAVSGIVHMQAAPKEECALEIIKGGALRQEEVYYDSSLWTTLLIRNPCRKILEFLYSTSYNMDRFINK

[2] = test system: A549 lung carcinoma cells; assay: A549 cell killing / viability
[3] = test system: A549 lung carcinoma cells; assay: Cell cycle of A549 cells
[4] = molecular target: T1, carbonyl reductase 1 (CBR1); assay: Production of daunorubicinol from daunorubicin
Excerpt: To independently confirm the ability of AB129 to inhibit CBR1 in A549 cells, an assay based on the role of CBR1 in attenuating the anti-cancer action of daunorubicin was employed.

i.v. serum half-life = format: in vivo; conditions: iv, read-out: i.v. serum half-life (t1/2)
Excerpt: The data obtained from these cell culture assays and animal studies can be used in formulating a dosage range that is not toxic for use in human. The dosage of such compounds lies within a range of circulating concentrations that include the ED50 with little or no toxicity. The dosage can vary within this range depending upon the dosage form employed and the route of administration utilized. The exact formulation, route of administration and dosage can be chosen by the individual physician in view of the patient's condition. (See, e.g., Fingl et al., 1975, In: The Pharmacological Basis of Therapeutics, Ch. 1, p. 1). One of the advantages, among others, of using the AB129-type compounds and analogs described herein to treat disease, e.g., lung cancer or colon cancer is their lack of toxicity.

[5] = molecular target: T2, N90V mutant of carbonyl reductase 1 (CBR1) (Homo sapiens, UniProt P16152, N90V); assay: Sensitivity of N90V mutant CBR1 to inhibitor; format: biochemical; conditions: FIG. 30
T2 construct: made in house
T2 sequence (P16152 1-277 N90V): T1 sequence (P16152 1-277) with N90V
Excerpt: To understand the basis for the potency of AB129 against CBR1, a computer algorithm was used for molecular docking of AB129 to an available crystal structure of porcine CBR1 to produce a model of the bound structure of AB129 (FIG. 24). This modeled co-structure was experimentally validated by site-directed mutagenesis of multiple amino acids in the proposed AB129 binding pocket (including a conserved Asn residue common to all SDR family members—FIGS. 25-27) and identification of AB129 resistant mutants of CBR1 (FIGS. 28-30). This binding model also potentially explains the importance of the hydroxyl moiety attached to the phenyl ring of AB129, as being critical for a H-bonding interaction with an active site Asn.

[6] = test system: A549 lung carcinoma cells; conditions: human, 2 days, 0.4 μM
[7] = Table 1, read-out: IC50 anti-c-Fyn-wt
[8] = Table 1, read-out: IC50 anti-hCBR1

Row | IC50 ([1]; read-out: anti-CBR IC50) [nM] | IC50 (c-Fyn-wt; [7]) [nM] | IC50 [1, 8] [nM] | SMILES | further results
1 | 4400 | – | – | CC(C)n1cc(-c2cccc(O)c2)c2c(NCc3ccccc3)ncnc21 [RB08, 3-(4-benzylamino-7-isopropyl-7H-pyrrolo[2,3-d]pyrimidin-5-yl)-phenol] | IC50 (c-Fyn-wt; read-out: anti-Fyn IC50): 20000 nM
2 | – | 11 | 1000 | CC(C)n1nc(-c2cccc(O)c2)c2c(N)ncnc21 [RB02] | killing of adenocarcinoma cells in culture (adenocarcinoma cells): kill adenocarcinoma cells in culture; CBR inhibition compared with AB129 [1]: comparable to AB129
3 | – | 200 | 930 | CCOCCn1nc(-c2cccc(O)c2)c2c(N)ncnc21 [MT15] | –
4 | 416 | – | – | CNc1ncnc2c1c(-c1cc(O)cc(C(F)(F)F)c1)cn2C(C)C [SD4, 3-(7-Isopropyl-4-methylamino-7H-pyrrolo[2,3-d]pyrimidin-5-yl)-5-trifluoromethyl-phenol] | –
5 | – | 70000 | 590 | CNc1ncnc2c1c(-c1cccc(O)c1)cn2C(C)C [RB06] | fold less potent as an inhibitor of Fyn (c-Fyn-wt; predicted, versus AB129): > 100 fold; CBR inhibition compared with AB129 [1]: equipotent
6 | 1150 | – | – | CNc1ncnc2c1c(-c1cccc(O)c1)cn2CCC(=O)OC(C)(C)C [RB10, tert-Butyl 3-(5-(3-hydroxyphenyl)-4-(methylamino)-4aH-pyrrolo[2,3-d]pyrimidin-7(7aH)-yl)propanoate] | –
7 | – | 110 | > 20000 | CC(C)(C)n1nc(-c2ccccc2)c2c(N)ncnc21 [AB001] | –
8 | – | – | – | CC1(C)[C@@H](O[C@H]2O[C@H](C(=O)O)[C@@H](O)[C@H](O)[C@H]2O[C@@H]2O[C@H](C(=O)O)[C@@H](O)[C@H](O)[C@H]2O)CC[C@]2(C)[C@H]3C(=O)C=C4[C@@H]5C[C@@](C)(C(=O)O)CC[C@]5(C)CC[C@@]4(C)[C@]3(C)CC[C@@H]12 [glycyrrhizic acid] | IC50 (11β-HSD1): 40 nM
9 | 27 | – | 28 | CC(C)n1cc(-c2cc(O)cc(Br)c2)c2c(Cl)ncnc21 [SD5, 3-bromo-5-(4-chloro-7-isopropyl-7H-pyrrolo[2,3-d]pyrimidin-5-yl)-phenol] | –
10 | – | 5000 | > 20000 | CCOCCn1nc(-c2ccccc2)c2c(N)ncnc21 [MT13] | –
11 | 3040 | – | – | CNc1ncnc2c1c(-c1cc(C)cc(O)c1)cn2C(C)C [SD2, 3-(7-isopropyl-4-methylamino-7H-pyrrolo[2,3-d]pyrimidin-5-yl)-5-methyl-phenol] | –
12 | – | – | – | COc1cccc2c1C(=O)c1c(O)c3c(c(O)c1C2=O)C[C@@](O)(C(C)=O)C[C@@H]3O[C@H]1C[C@H](N)[C@H](O)[C@H](C)O1 [daunorubicin, reference compound] | loss of viability of A549 cells ([2]; daunorubicin single agent, 0.8 μM): 15%
13 | 220 | – | – | CNc1ncnc2c1c(-c1cccc(O)c1)cn2CCC(=O)O [RB11, 3-(5-(3-hydroxyphenyl)-4-(methylamino)-4aH-pyrrolo[2,3-d]pyrimidin-7(7aH)-yl)propanoic acid] | –
14 | 193 | – | – | Cc1cc(O)cc(-c2cn(C(C)C)c3ncnc(Cl)c23)c1 [SD6, 3-(4-chloro-7-isopropyl-7H-pyrrolo[2,3-d]pyrimidin-5-yl)-5-methyl-phenol] | –
15 | 376 | – | – | CC(C)n1cc(-c2cc(O)cc(C(C)(C)C)c2)c2c(Cl)ncnc21 [SD7, 3-tert-butyl-5-(4-chloro-7-isopropyl-7H-pyrrolo[2,3-d]pyrimidin-5-yl)-phenol] | –
16 | 7650 | – | – | CNc1ncnc2c1c(-c1cc(O)cc(C(C)(C)C)c1)cn2C(C)C [SD3, 3-tert-Butyl-5-(7-isopropyl-4-methylamino-7H-pyrrolo[2,3-d]pyrimidin-5-yl)-phenol] | –
17 | 220 | – | – | CNc1ncnc2c1c(-c1cc(O)cc(Br)c1)cn2C(C)C [SD1, 3-bromo-5-(7-isopropyl-4-methylamino-7H-pyrrolo[2,3-d]pyrimidin-5-yl)-phenol] | –
18 | – | – | > 20000 | CC(C)n1cc(-c2cccc(O)c2)c2c(N(Cc3ccccc3)Cc3ccccc3)ncnc21 [RB09, 3-(4-dibenzylamino-7-isopropyl-7H-pyrrolo[2,3-d]pyrimidin-5-yl)-phenol] | –
19 | – | 50 | > 20000 | CC(C)(C)n1nc(-c2ccc(N)cc2)c2c(N)ncnc21 [AB061] | cell killing in human lung cancer cell line A549 [2]: mild to severe cell killing
20 | – | 1200 | > 20000 | CC(C)(C)n1nc(Cc2cccc(O)c2)c2c(N)ncnc21 [RB01] | –
21 | – | 50 | > 20000 | CC(C)(C)n1nc(-c2cccc(N)c2)c2c(N)ncnc21 [AB060] | cell killing in human lung cancer cell line A549 [2]: mild to severe cell killing
22 | – | – | – | Cc1ccc(-c2nn(C(C)(C)C)c3ncnc(N)c23)cc1 [PP1, reference compound] | A549 cells in G2/M phase [3]: approximately 5.6%; cell killing in human lung cancer cell line A549 [2]: not; IC50 [1]: > 20000 nM; inhibition of CBR1 ([1]; at a concentration as high as 16 μM): did not inhibit; inhibition of CBR1 ([1]; in vitro assay, CBR1 expressed in bacteria): does not inhibit
23 | – | 3 | 1000 | CC(C)(C)n1nc(-c2ccc(F)c(O)c2)c2c(N)ncnc21 [MS01] | –
24 | – | 120 | > 20000 | CC(C)(C)n1nc(Cc2ccccc2O)c2c(N)ncnc21 [RB04] | –
25 | – | 12 | 760 | CC(C)n1cc(-c2cccc(O)c2)c2c(N)ncnc21 [RB05, 3-(4-amino-7-isopropyl-7H-pyrrolo[2,3-d]pyrimidin-5-yl)-phenol] | killing of adenocarcinoma cells in culture (adenocarcinoma cells): kill adenocarcinoma cells in culture; CBR inhibition compared with AB129 [1]: comparable to AB129
26 | – | – | > 20000 | CNc1ncnc2c1c(-c1cccc(N)c1)cn2C(C)C [RB07, [5-(3-amino-phenyl)-7-isopropyl-7H-pyrrolo[2,3-d]pyrimidin-4-yl]-methyl-amine] | –
27 | 67 | – | – | CC(C)n1cc(-c2cc(O)cc(C(F)(F)F)c2)c2c(Cl)ncnc21 [SD8, 3-(4-Chloro-7-isopropyl-7H-pyrrolo[2,3-d]pyrimidin-5-yl)-5-trifluoromethyl-phenol] | –
28 | – | ~20000 | > 20000 | CC(C)(C)n1nc(Cc2ccc(O)cc2)c2c(N)ncnc21 [RB03] | –

Row | SMILES | IC50 ([1]; read-out: anti-CBR IC50) [nM] | IC50 (c-Fyn-wt; [7]) [nM] | IC50 [1, 8] [nM] | further results
29 | CC(C)(C)n1nc(-c2cccc(O)c2)c2c(N)ncnc21 [AB129] | – | 8 | 790 | IC50 (c-Fyn-wt; read-out: anti-Fyn IC50): 10 nM; production of cardiotoxic metabolite daunorubicinol from daunorubicin [4]: able to block production; half-life (i.v. serum half-life): 2 to 2.5 h; sensitivity of N90V mutant CBR1 versus wild type CBR1 [5]: less sensitive; loss of viability of A549 cells [6]: 15%; A549 cells in G2/M phase [3]: approximately 12%; cell killing in human lung cancer cell line A549 [2]: mild to severe cell killing; also recorded: most potent A549 cell killing response; IC50 ([1]; FIG. 5, read-out: IC50, CBR1 catalyzed reduction of menadione by NADPH): ~5000 nM; Ki ([1]; NADPH competitive): 400 nM and 300 to 400 nM; mode of inhibition of CBR1 ([1]; with respect to NADPH): pure NADPH competitive inhibitor
